Tests used:
Bcl-xL = Bcl-xL (Homo sapiens (Human), UniProt Q07817); test: Bcl-xL/Bim Fluorescence Resonance Energy Transfer Assay (FRET); type: binding
Procedure: Bcl-xL/Bim Fluorescence Resonance Energy Transfer Assay (FRET) The assays were performed in black flat-bottom 384-well plates. The final assay volume was 55 μl prepared from additions of Biotin-Bcl-xL (Bcl-xL: GENBANK® Accession No. […] The reaction was incubated at room temperature for 60 minutes. After 60 minutes, 5 μL of Streptavidin-Terbium FRET detection reagent (Perkin Elmer) was added to the reaction mixture and incubated at room temperature in the dark for 30 mins. […] Compounds were dissolved at 10 mM in dimethylsulfoxide (DMSO) and evaluated at eleven concentrations. IC50 values were derived by non-linear regression analysis.

Bcl-2 = Bcl-2 (Homo sapiens (Human), UniProt P10415); test: Bcl-2/Bim Fluorescence Polarization Assay (FPA); type: binding
Procedure: Bcl-2/Bim Fluorescence Polarization Assay (FPA)
The assays were performed in black flat-bottom 384-well plates. […] The reaction was incubated at room temperature for 60 minutes and fluorescence polarization of the reaction was detected on the LJL Plate Reader. Inhibition data were calculated from mP values generated by the no protein control reactions for 100% inhibition and vehicle-only reactions for 0% inhibition. The final concentrations of reagents in the assay were 4.9 nM BCL-2, 5 nM fluoresceinated 18-mer BIM peptide and 1% DMSO. […] Compounds were dissolved at 10 mM in dimethylsulfoxide (DMSO) and evaluated at eleven concentrations. IC50 values were derived by non-linear regression analysis.

Chain of Bcl-xL (Q07817 whole entry): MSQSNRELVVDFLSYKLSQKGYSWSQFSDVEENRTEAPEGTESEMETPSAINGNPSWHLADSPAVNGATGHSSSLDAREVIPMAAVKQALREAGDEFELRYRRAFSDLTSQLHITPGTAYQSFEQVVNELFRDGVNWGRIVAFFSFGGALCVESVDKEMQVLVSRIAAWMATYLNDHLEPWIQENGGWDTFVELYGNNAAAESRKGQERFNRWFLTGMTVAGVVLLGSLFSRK
Chain of Bcl-2 (P10415 whole entry): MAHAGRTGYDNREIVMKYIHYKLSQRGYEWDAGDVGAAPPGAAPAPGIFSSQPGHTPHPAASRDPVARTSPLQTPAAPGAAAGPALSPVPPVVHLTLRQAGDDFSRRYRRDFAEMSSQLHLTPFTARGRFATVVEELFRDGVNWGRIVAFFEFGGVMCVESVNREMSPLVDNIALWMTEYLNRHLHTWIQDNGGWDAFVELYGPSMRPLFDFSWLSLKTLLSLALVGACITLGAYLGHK

| IC50 (Bcl-xL) [nM] | IC50 (Bcl-2) [nM] | Compound |
| --- | --- | --- |
| 80 | 110 | CCCCN(CCCC(F)(F)F)C(=O)c1nn(-c2ccc(C(=O)NS(=O)(=O)c3ccc4ccccc4c3)cc2C(=O)N2CCc3ccccc3C2)c(C)c1Cl [Example 128, N-butyl-4-chloro-5-methyl-1-(4-(naphthalen-2-ylsulfonylcarbamoyl)-2-(1,2,3,4-tetrahydroisoquinoline-2-carbonyl)phenyl)-N-(4,4,4-trifluorobutyl)-1H-pyrazole-3-carboxamide] |
| 690 | 260 | CCCCN(CCCC)c1nn(-c2ccc(C(=O)NS(=O)(=O)c3ccc4ccccc4c3)cc2C(=O)N2CCc3ccccc3C2)c(C)c1Cl [Example 191, 4-(4-Chloro-3-(dibutylamino)-5-methyl-1H-pyrazol-1-yl)-N-(naphthalen-2-ylsulfonyl)-3-(1,2,3,4-tetrahydroisoquinoline-2-carbonyl)benzamide] |
| 60 | 50 | CCCCN(CCCC)C(=O)c1nn(-c2ccc(C(=O)NS(=O)(=O)c3ccc4c(c3)CCN4CCSc3ccccc3)cc2C(=O)N2CCc3ccccc3C2)c(C)c1Cl [Example 67, N,N-dibutyl-4-chloro-5-methyl-1-(4-(1-(2-(phenylthio)ethyl)indolin-5-ylsulfonylcarbamoyl)-2-(1,2,3,4-tetrahydroisoquinoline-2-carbonyl)phenyl)-1H-pyrazole-3-carboxamide] |
| 130 | 440 | CCCCN(CCCC)C(=O)c1nn(-c2ccc(C(=O)NS(=O)(=O)c3ccc4ccccc4c3)cc2C(=O)N2Cc3ccccc3S(=O)(=O)C2)c(C)c1Cl [Example 104, N,N-Dibutyl-4-chloro-1-(2-(1,1-dioxido-3,4-dihydro-2H-benzo[e][1,3]thiazine-3-carbonyl)-4-(naphthalen-2-ylsulfonylcarbamoyl)phenyl)-5-methyl-1H-pyrazole-3-carboxamide] |
| 510 | 40 | CCCN(CCC)c1nn(-c2ccc(C(=O)NS(=O)(=O)c3ccc4cccc(Cl)c4c3)cc2C(=O)N2CCc3ccccc3C2)c(C(F)(F)F)c1Cl [Example 196, 4-(4-Chloro-3-(dipropylamino)-5-(trifluoromethyl)-1H-pyrazol-1-yl)-N-(8-chloronaphthalen-2-ylsulfonyl)-3-(1,2,3,4-tetrahydroisoquinoline-2-carbonyl)benzamide] |
| 60 | 340 | CCCCN(CCCC)C(=O)c1nn(-c2ccc(C(=O)NS(=O)(=O)c3ccc4c(c3)CCN4C(=O)N3CCOCC3)cc2C(=O)N2CCc3ccccc3C2)c(C)c1Cl [Example 74, N,N-dibutyl-4-chloro-5-methyl-1-(4-(1-(morpholine-4-carbonyl)indolin-5-ylsulfonylcarbamoyl)-2-(1,2,3,4-tetrahydroisoquinoline-2-carbonyl)phenyl)-1H-pyrazole-3-carboxamide] |
| 40 | 10 | CCCCN(CCCC)C(=O)c1nn(-c2ccc(C(=O)NS(=O)(=O)c3ccc4c(c3)CCN4Cc3ccc(Cl)c(Cl)c3)cc2C(=O)N2Cc3ccccc3C[C@H]2CO)c(C)c1Cl [Example 189, N,N-Dibutyl-4-chloro-1-(4-(1-(3,4-dichlorobenzyl)indolin-5-ylsulfonylcarbamoyl)-2-((S)-3-(hydroxymethyl)-1,2,3,4-tetrahydroisoquinoline-2-carbonyl)phenyl)-5-methyl-1H-pyrazole-3-carboxamide] |
| 30 | 130 | CCCCc1c(-c2ccc(C(=O)NS(=O)(=O)c3ccc4ccccc4c3)cc2C(=O)N2CCc3ccccc3C2)c(CO)nn1-c1ccc(Oc2ccccc2)cc1 [Example 241, 4-(5-butyl-3-(hydroxymethyl)-1-(4-phenoxyphenyl)-1H-pyrazol-4-yl)-N-(naphthalen-2-ylsulfonyl)-3-(1,2,3,4-tetrahydroisoquinoline-2-carbonyl)benzamide] |
| 60 | 100 | CCCCc1c(-c2ccc(C(=O)NS(=O)(=O)c3ccc4ccccc4c3)cc2C(=O)N2CCc3ccccc3C2)c(C(=O)OCC)nn1-c1ccc(Oc2ccccc2)cc1 [Example 228, Ethyl 5-butyl-4-(4-(naphthalen-2-ylsulfonylcarbamoyl)-2-(1,2,3,4-tetrahydroisoquinoline-2-carbonyl)phenyl)-1-(4-phenoxyphenyl)-1H-pyrazole-3-carboxylate] |
| 10 | 10 | CCCCN(CCCC)C(=O)c1nn(-c2ccc(C(=O)NS(=O)(=O)c3ccc4cccc(Cl)c4c3)cc2C(=O)N2Cc3ccccc3C[C@H]2CN)c(C)c1Cl [Example 203, 1-(2-((S)-3-(aminomethyl)-1,2,3,4-tetrahydroisoquinoline-2-carbonyl)-4-(8-chloronaphthalen-2-ylsulfonylcarbamoyl)phenyl)-N,N-dibutyl-4-chloro-5-methyl-1H-pyrazole-3-carboxamide] |
| 40 | 20 | CCCCN(CCCC)C(=O)c1nn(-c2ccc(C(=O)NS(=O)(=O)c3ccc4c(c3)c(Cl)cn4CC)cc2C(=O)N2CCc3ccccc3C2)c(C)c1Cl [Example 83, N,N-dibutyl-4-chloro-1-(4-(3-chloro-1-ethyl-1H-indol-5-ylsulfonylcarbamoyl)-2-(1,2,3,4-tetrahydroisoquinoline-2-carbonyl)phenyl)-5-methyl-1H-pyrazole-3-carboxamide] |
| 220 | 30 | CCCCN(CCc1ccc(Cl)c(Cl)c1)C(=O)c1nn(-c2ccc(C(=O)NS(=O)(=O)c3ccc4ccccc4c3)cc2C(=O)N2CCc3ccccc3C2)c(C)c1Cl [Example 127, N-butyl-4-chloro-N-(3,4-dichlorophenethyl)-5-methyl-1-(4-(naphthalen-2-ylsulfonylcarbamoyl)-2-(1,2,3,4-tetrahydroisoquinoline-2-carbonyl)phenyl)-1H-pyrazole-3-carboxamide] |
| 70 | 600 | CCCCN(CCCC)C(=O)c1cccc(-c2ccc(C(=O)NS(=O)(=O)c3ccc4ccccc4c3)cc2C(=O)N2CCc3ccccc3C2)n1 [Example 286, N,N-Dibutyl-6-(4-(naphthalen-2-ylsulfonylcarbamoyl)-2-(1,2,3,4-tetrahydroisoquinoline-2-carbonyl)phenyl)picolinamide] |
| 8.85 | 9.15 | CCCCN(CCCC)C(=O)c1nn(-c2ccc(C(=O)NS(=O)(=O)c3cc(Br)c4c(c3)CCN4CC)cc2C(=O)N2Cc3ccccc3C[C@H]2CO)c(C)c1Cl [Example 205, 1-(4-(7-bromo-1-ethylindolin-5-ylsulfonylcarbamoyl)-2-((S)-3-(hydroxymethyl)-1,2,3,4-tetrahydroisoquinoline-2-carbonyl)phenyl)-N,N-dibutyl-4-chloro-5-methyl-1H-pyrazole-3-carboxamide] |
| 80 | 10 | CCCCN(Cc1ccc(-c2ccc(CC(=O)O)cc2)cc1)C(=O)c1nn(-c2ccc(C(=O)NS(=O)(=O)c3ccc4c(c3)CCN4Cc3ccc(Cl)c(Cl)c3)cc2C(=O)N2CCc3ccccc3C2)c(C)c1Cl [Example 213, 2-(4′-((N-butyl-4-chloro-1-(4-(1-(3,4-dichlorobenzyl)indolin-5-ylsulfonylcarbamoyl)-2-(1,2,3,4-tetrahydroisoquinoline-2-carbonyl)phenyl)-5-methyl-1H-pyrazole-3-carboxamido)methyl)biphenyl-4-yl)acetic acid] |
| 60 | 20 | CCCCc1c(-c2ccc(C(=O)NS(=O)(=O)c3ccc4ccccc4c3)cc2C(=O)N2CCc3ccccc3C2)c(C(=O)OCC)nn1-c1ccc(Oc2cccc(Cl)c2)cc1 [Example 230, Ethyl 5-butyl-1-(4-(3-chlorophenoxy)phenyl)-4-(4-(naphthalen-2-ylsulfonylcarbamoyl)-2(1,2,3,4-tetrahydroisoquinoline-2-carbonyl)phenyl)-1H-pyrazole-3-carboxylate] |
| 20 | 920 | CCCCN(CCCC)C(=O)c1nn(-c2ccc(C(=O)NS(=O)(=O)c3ccc4cccc(C#N)c4c3)cc2C(=O)N2CCc3ccccc3C2)c(C)c1Cl [Example 8, N,N-dibutyl-4-chloro-1-(4-(8-cyanonaphthalen-2-ylsulfonylcarbamoyl)-2-(1,2,3,4-tetrahydroisoquinoline-2-carbonyl)phenyl)-5-methyl-1H-pyrazole-3-carboxamide] |
| 40 | 20 | CCCCc1c(-c2ccc(C(=O)NS(=O)(=O)c3ccc4ccccc4c3)cc2C(=O)N2CCc3ccccc3C2)c(CO)nn1-c1ccc(Oc2ccc(Cl)cc2)cc1 [Example 242, 4-(5-butyl-1-(4-(4-chlorophenoxy)phenyl)-3-(hydroxymethyl)-1H-pyrazol-4-yl)-N-(naphthalen-2-ylsulfonyl)-3-(1,2,3,4-tetrahydroisoquinoline-2-carbonyl)benzamide] |
| 40 | 7.84 | CCCN(CCC)c1nn(-c2ccc(C(=O)NS(=O)(=O)c3ccc4c(Cl)ccc(Br)c4c3)cc2C(=O)N2Cc3ccccc3C[C@H]2CO)c(C)c1Cl [Example 207, N-(8-bromo-5-chloronaphthalen-2-ylsulfonyl)-4-(4-chloro-3-(dipropylamino)-5-methyl-1H-pyrazol-1-yl)-3-((S)-3-(hydroxymethyl)-1,2,3,4-tetrahydroisoquinoline-2-carbonyl)benzamide] |
